Results from PubChem BioAssay AID2060488 (Molecular Pharmacology Branch, DTP, NCI, 2025).
pIC50: −log10 of the molar value.

Tested on: 966289-007-R4-J1-PDC complex spheroid viability
Assay: Anticancer human tumor 966289-007-R4-J1-PDC patient-derived pancreatic adenocarcinoma cell line growth inhibition [GQUAD]
Conditions: for pIC50: curve of first compound; for viability, T/C: stronger effect = lower value
Source text: DNA G-quadruplex Stabilizer Agents in Combinations in Complex Spheroids
A high-throughput screen of multi-cell type tumor spheroids was designed to identify active combinations of DNA G-quadruplex stabilizer agents and targeted small molecules. Complex spheroids include a stromal component modeled by human endothelial cells (HUVEC) and fibroblasts modeled by human mesenchymal stem cells (MSCs). The concentration ranges selected for each drug and investigational agent were based upon clinically achievable concentrations if the clinical Cmax of the agent was known.
Compounds. The drugs and investigational agents: pidnarulex (CX-5461; NSC782164), APTO-253 (NSC789042), BRACO-19 (NSC847499), peposertib (NSC802822), ceralasertib (NSC780249), elimusertib (NSC800525), camonsertib (NSC841442), AZD-1390 (NSC803789), olaparib (NSC753686), talazoparib (NSC767125), ART-558 (NSC835418), sotorasib (NSC818433), MRTX-1133 (NSC836407), SN-38 (NSC673596), topotecan (NSC609699), etoposide (NSC141540), doxorubicin (NSC123127), gemcitabine (NSC613327), 5-fluorouracil (NSC19893), paclitaxel (NSC125973), vemurafenib (NSC761431), panobinostat (NSC761190), R-306465 (JNJ-16241199; NSC773264), adavosertib (NSC754352), TP-3654 (NSC805149), carboplatin (NSC241240), KSQ-4279 (NSC840948), and staurosporine (NSC755774) were obtained from the National Cancer Institute (NCI) Developmental Therapeutics Program Chemical Repository (34). The FDA-approved anticancer drug set is available from the NCI Developmental Therapeutics Program. […] The stock solutions were prepared in dimethyl sulfoxide (DMSO, Sigma-Aldrich, St. Louis, MO, cat. D2650) at 800-fold the tested concentration and stored at -70 degrees C prior to their use. All drugs and investigational agents were tested over a range starting from a high concentration at or near the clinical Cmax and decreasing in half-log increments. If the clinical Cmax for an agent had not been determined, the highest concentration tested was 10 microM.
2.3 Cell Culture. All cells were maintained in an incubator at 37 degrees C and 5% CO2 with 95% humidity. The PDC lines were cultured according to standard operating procedures established by the NCI PDMR. All PDCs were thawed and cultured in Matrigel-coated flasks prepared with a working solution of 1X Ham's F-12 nutrient mix, without supplementation (Invitrogen, cat. 11765054), 100 U/mL penicillin-streptomycin (Invitrogen, cat. 15140122), and 2.5% Matrigel (Corning Inc., cat. 354248) for the first three passages. The 857933-349-R-J2-PDC line was cultured in 6C/Colon 1B media, which includes advanced DMEM/F-12 (Thermo Fisher Scientific, cat. 12634028), 10 mM HEPES (Thermo Fisher Scientific, cat. 15630080), 1X GlutaMAX supplement (Thermo Fisher Scientific, cat. 35050061), 0.1 mg/mL primocin (InvivoGen, cat. ant-pm-2), 10% defined fetal bovine serum, heat inactivated (HyClone Laboratories Inc., cat. SH30070.03HI), 50% L-WRN conditioned media (ATCC, cat. CRL-3276), 1.25 mM N-Acetyl-L-cysteine (Sigma-Aldrich, cat. A9165), 10 mM nicotinamide (Sigma-Aldrich, cat. N0636), 1X B-27 supplement (Thermo Fisher Scientific, cat. 17504044), 1X N-2 supplement (Thermo Fisher Scientific, cat. 17502048), 10 microM Y-27632 dihydrochloride (Tocris Bioscience, cat. 1254), and 50 ng/mL human EGF recombinant protein (Thermo Fisher Scientific, cat. PHG0311). The 485176-168-R4-J1-PDC line was cultured in Panc media, which includes all 6C/Colon 1B media components plus 100 ng/mL human FGF-10 (Thermo Fisher Scientific, cat. 100-26), 500 nM SB-431542 (Selleckchem, cat. S1067), and gastrin (Tocris, cat. 3006).
[…]
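Further: spheroids exposed to the agents for seven days before readout.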
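Wherever viability, T/C is given: percent viability relative to DMSO vehicle control wells taken as 100%.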

COc1cc(C2c3cc4c(cc3C(OC3OC5COC(C)OC5C(O)C3O)C3COC(=O)C23)OCO4)cc(OC)c1O (configuration not stated) + Cc1cnc(CNC(=O)c2c(=O)c3ccc(N4CCCN(C)CC4)nc3n3c2sc2ccccc23)cn1
pIC50 (second compound 0.0316 µM): 6.96
pIC50 (second compound 0.1 µM): > 7.50
pIC50 (second compound 0.316 µM): > 7.50
pIC50 (second compound 1 µM): > 7.50
pIC50 (second compound 3.16 µM): > 7.50
pIC50 (second compound 10 µM): > 7.50
viability, T/C (second compound 0.0316 µM, first compound 0.0316 µM): 88%
viability, T/C (second compound 0.0316 µM, first compound 0.1 µM): 53.8%
viability, T/C (second compound 0.0316 µM, first compound 0.316 µM): 10.1%
viability, T/C (second compound 0.0316 µM, first compound 1 µM): 2.94%
viability, T/C (second compound 0.0316 µM, first compound 3.16 µM): 2.18%
viability, T/C (second compound 0.0316 µM, first compound 10 µM): 0.59%
viability, T/C (second compound 0.1 µM, first compound 0.0316 µM): 29.7%
viability, T/C (second compound 0.1 µM, first compound 0.1 µM): 19.7%
viability, T/C (second compound 0.1 µM, first compound 0.316 µM): 8.71%
viability, T/C (second compound 0.1 µM, first compound 1 µM): 3.16%
viability, T/C (second compound 0.1 µM, first compound 3.16 µM): 1.36%
viability, T/C (second compound 0.1 µM, first compound 10 µM): 0.71%
viability, T/C (second compound 0.316 µM, first compound 0.0316 µM): 10.3%
viability, T/C (second compound 0.316 µM, first compound 0.1 µM): 9.3%
viability, T/C (second compound 0.316 µM, first compound 0.316 µM): 5.22%
viability, T/C (second compound 0.316 µM, first compound 1 µM): 3.25%
viability, T/C (second compound 0.316 µM, first compound 3.16 µM): 1.25%
viability, T/C (second compound 0.316 µM, first compound 10 µM): 1.38%
viability, T/C (second compound 1 µM, first compound 0.0316 µM): 6.49%
viability, T/C (second compound 1 µM, first compound 0.1 µM): 6.05%
viability, T/C (second compound 1 µM, first compound 0.316 µM): 4.38%
viability, T/C (second compound 1 µM, first compound 1 µM): 2.66%
viability, T/C (second compound 1 µM, first compound 3.16 µM): 1.27%
viability, T/C (second compound 1 µM, first compound 10 µM): 0.48%
viability, T/C (second compound 3.16 µM, first compound 0.0316 µM): 4.76%
viability, T/C (second compound 3.16 µM, first compound 0.1 µM): 4.96%
viability, T/C (second compound 3.16 µM, first compound 0.316 µM): 2.85%
viability, T/C (second compound 3.16 µM, first compound 1 µM): 0.6%
viability, T/C (second compound 3.16 µM, first compound 3.16 µM): 0.46%
viability, T/C (second compound 3.16 µM, first compound 10 µM): 0.09%
viability, T/C (second compound 10 µM, first compound 0.0316 µM): 0.03%
viability, T/C (second compound 10 µM, first compound 0.1 µM): 0.07%
viability, T/C (second compound 10 µM, first compound 0.316 µM): 0.09%
viability, T/C (second compound 10 µM, first compound 1 µM): 0.06%
viability, T/C (second compound 10 µM, first compound 3.16 µM): 0.12%
viability, T/C (second compound 10 µM, first compound 10 µM): 0.12%
